These results are taken from patent US11717598B2, “Operating room coating applicator and method” (Ethicon, Inc., priority 2018, dated 2023).

Test [1] concerns S. aureus. The following applies: measured in a suitable growth medium; Bhargava, H. et al, American Journal of Infection Control, June 1996; cited from earlier work.
The subject of test [2] is Staphylococcus aureus. As to the kind of experiment: zone of inhibition test of triclosan-coated stainless steel coupon on agar plate. In kind it is cell-based. The following applies: triclosan coating on 0.5" polished 316 stainless steel coupon; incubated at 38° C. for 24 hours; inoculum of 10^5 bacteria per cubic centimeter; 80 mm diameter plate. An excerpt: A filter paper disk, or other object, impregnated with a particular antimicrobial agent is applied to an agar medium that is inoculated with the test organism. Where the anti-microbial agent diffuses through the medium, and as long as the concentration of the antimicrobial agent is above the MIC, none of the susceptible organism will grow on or around the disk for some distance. This distance is called a zone of inhibition. […] The diameter of the zone of inhibition is inversely proportional to the MIC.
A triclosan coating was applied to a 0.5″ polished 316 stainless steel coupon using the device described in FIGS. 1 and 2 according to the cycle described in FIG. 10. The stainless steel coupon was then incubated at 38° C. for 24 hours on an agar plate containing an initial Staphylococcus aureus inoculum of 10^5 bacteria per cubic centimeter of solution.

With `Oc1cc(Cl)ccc1Oc1ccc(Cl)cc1Cl` [triclosan, 2,4,4′-trichloro-2′-hydroxydiphenyl ether], in test [1], the “minimum inhibitory concentration (MIC) against S. aureus” value is reported as 0.01 ppm. The zone of inhibition entry in test [2] is “approximately 40 mm”.
